Measurements taken from patent US10254456B2, “Polarizing plate composition, polarizing plate protective film, polarizer, polarizing plate, and liquid crystal display device” (FUJIFILM Corporation, priority 2014, dated 2019).

Assay: Solubility of additive in water
Format: physicochemical
Details: 100 ml of pure water at 25° C.
Protocol: The amount of the additive dissolving in 100 ml of pure water at 25° C. was measured and evaluated according to the following criteria.

Structure (SMILES) | Solubility in water
O=C1NNC(=O)C1c1ccccc1 [2-1] | A (The amount of the additive dissolving in 100 ml of pure water was equal to or greater than 3 g and less than 5 g.)
CC(C)C1C(=O)NNC1=O [2-3] | A (The amount of the additive dissolving in 100 ml of pure water was equal to or greater than 3 g and less than 5 g.)
CC(=O)C(Cc1ccccc1S(=O)(=O)[O-])C(=O)c1ccccc1.[Na+] (stereo not drawn) [3-2] | A+ (The amount of the additive dissolving in 100 ml of pure water was equal to or greater than 5 g.)
CC1(C)CC(=O)C(Cc2ccccc2S(=O)(=O)O)C(=O)C1 [3-3] | A+ (The amount of the additive dissolving in 100 ml of pure water was equal to or greater than 5 g.)
O=C1c2ccccc2C(=O)C1Cc1ccccc1S(=O)(=O)O [3-4] | A+ (The amount of the additive dissolving in 100 ml of pure water was equal to or greater than 5 g.)
O=C1C(Cc2ccccc2S(=O)(=O)[O-])C(=O)N(c2ccccc2)N1c1ccccc1.[Na+] [3-6] | A+ (The amount of the additive dissolving in 100 ml of pure water was equal to or greater than 5 g.)
CN1C(=O)C(Cc2ccccc2S(=O)(=O)[O-])C(=O)c2ccccc21.[Na+] (stereo not drawn) [3-7] | A+ (The amount of the additive dissolving in 100 ml of pure water was equal to or greater than 5 g.)
O=C1Nc2ccccc2NC(=O)C1Cc1ccc(S(=O)(=O)[O-])cc1S(=O)(=O)O.[Na+] [3-8] | A+ (The amount of the additive dissolving in 100 ml of pure water was equal to or greater than 5 g.)
O=C1C(Cc2ccc(S(=O)(=O)[O-])cc2S(=O)(=O)O)C(=O)N2CCCCN12.[Na+] [3-9] | A+ (The amount of the additive dissolving in 100 ml of pure water was equal to or greater than 5 g.)
O=C1CN(c2ccccc2)C(=O)C1Cc1ccccc1S(=O)(=O)O (stereo not drawn) [3-10] | A+ (The amount of the additive dissolving in 100 ml of pure water was equal to or greater than 5 g.)
O=Cc1ccc(CC2C(=O)N(c3ccccc3)N(c3ccc(S(=O)(=O)[O-])cc3)C2=O)cc1.[Na+] (stereo not drawn) [5-1] | A+ (The amount of the additive dissolving in 100 ml of pure water was equal to or greater than 5 g.)
O=CC1C(=O)N(c2ccccc2)N(c2ccc(S(=O)(=O)[O-])cc2)C1=O.[Na+] (stereo not drawn) [5-5] | A+ (The amount of the additive dissolving in 100 ml of pure water was equal to or greater than 5 g.)
O=C1NC(=O)N(Cc2ccccc2)C(=O)C1c1ccccc1 (stereo not drawn) [Organic acid 1, reference compound] | C (The amount of the additive dissolving in 100 ml of pure water was less than 1 g.)
Nc1c(F)c(F)c(C(=O)O)c(F)c1F [Organic acid 2, reference compound] | A (The amount of the additive dissolving in 100 ml of pure water was equal to or greater than 3 g and less than 5 g.)
[Cl-].[Cl-].[Zn+2] [ZnCl2, reference compound] | A+ (The amount of the additive dissolving in 100 ml of pure water was equal to or greater than 5 g.)
